Measurements published in paper PMC7998669, “7-(2-Anilinopyrimidin-4-yl)-1-benzazepin-2-ones Designed by a “Cut and Glue” Strategy Are Dual Aurora A/VEGF-R Kinase Inhibitors” (Molecules, 2021).

Key:
Test in all cases: radiometric 33PanQinase protein kinase assay
Type in all cases: biochemical
Conditions in all cases: radiometric assay, 1 µM ATP
[1] = target: T1, Aurora-B (Homo sapiens, UniProt Q96GD4)
T1 construct: host or cells: Sf9 (baculovirus)
Experimental: (§1) The inhibitory activity of prototype 2a was determined in a panel of 24 tumor-relevant protein kinases using a radiometric assay. Only the kinases Aurora A, VEGF-R2 and VEGF-R3 were inhibited with single digit micromolar IC50 values (Table 2). Structural modifications were then implemented, particularly directed to improve inhibition of Aurora A. The so-designed congeners with small substituents at the aniline ring 2b–2n were examined for inhibition of Aurora A and of VEGF-R2, VEGF-R3 and Aurora B for comparison (Table 3).
(§2) The screening for protein kinase inhibition was performed with the radiometric ^33Panqinase activity assay at Reaction Biology Europe GmbH (Freiburg) using a robotic system (Beckmann Coulter/SagianRoboter) and 96-well plates (FlashPlates, Perkin/Elmer/NEN, Boston, MA, USA). In brief, the transfer of ^33P-phosphate into the substrate was measured with a microplate scintillation counter (Microbeta Trilux, Wallace). Protein kinases were expressed in Sf9 cells as recombinant glutathione S-transferase (GST) or polyhistidine (His)-tagged proteins in baculovirus. Isolation and purification of expressed kinases were performed with affinity chromatography by using GSH agarose (Sigma) or Ni-NTA agarose (Qiagen). The standard solution for each enzyme contained: 60 mM HEPES-NaOH (pH 7.5), 3 mM MgCl2, 3 µM sodium orthovanadate, 1.2 mM DTT, 50 µg/mL PEG20000 and 1 µM [γ-^33P]-ATP (approximately 5 × 10^5 cpm per well). In chronological order the reaction mixture was prepared: 20 µL standard solution, 5 µL ATP solution in water, 5 µL of the compound in 10% DMSO and 20 µL of enzyme/substrate mixture (50:50). Each kinase contained different substrates in different concentrations: 125 ng/50 µL Poly(Glu, Tyr)4:1 for 20 ng/50 µL IGF1-R, 25 ng/50 µL IGF1-R, 20 ng/50 µL EGF-R, 25 ng/50 µL EGF-R, 40 ng/50 µL EGF-R, 10 ng/50 µL EPHB4, 20 ng/50 µL EPHB4, 200 ng/50 µL ERBB2, 10 ng/50 µL SRC, 100 ng/50 µL FAK, 200 ng/50 µL FAK, 50 ng/50 µL VEGF-R2, 100 ng/50 µL VEGF-R3, 200 ng/50 µLTIE2; 250 ng/50 µL Poly(Glu, Tyr)4:1 for 200 ng/50 µL TIE2; 500 ng/50 µL tetra (LRRWSLG) for 50 ng/50 µL Aurora-A, 25 ng/50 µL PAK4, 25 ng/50 µL PDK1; 250 ng/50 µL tetra (LRRWSLG) for 50 ng/50 µL Aurora-B, 200 ng/50 µL Aurora-B; 125 ng/50 µL Histon H1 for 100 ng/50 µL CDK2/CycA; 250 ng/50 µL Rb-CTF for 50 ng/50 µL CDK/CycD1; 500 ng/50 µL Rb-CTF for 50 ng/50 µL CDK4/CycD1; 125 ng/50 µL Poly(ala, Glu, Lys, Tyr)6:2:5:1 for 25 ng/50 µL INS-R, 50 ng/50 µL PDGFR-beta, 100 ng/50 µL PDGFR-beta, 100 ng/50 µL FLT3, 150 ng/50 µL FLT3, 20 ng/50 µL MET, 50 ng/50 µL MET, 100 ng/50 µL MET; 250 ng/50 µL Casein for 200 ng/50 µL CK2-alpha1, 200 ng/50 µL PLK1; 1000 ng/50 µL Casein for 200 ng/50 µL PLK1, 200 ng/50 µL CK2-alpha1; 1000 ng/50 µLGSK3 (14–27) for 100 ng/50 µL AKT1; 125 ng/50 µL p53-CTM for 150 ng/50 µL CK2-alpha1, 200 ng/50 µLCK2-alpha1; 250 ng/50 µL MEK-KM for 20 ng/50 µL B-RAF-VE; autophosphorylation at ARK5, COT and SAK. After incubation (80 min, 30 °C) the reaction was stopped by adding 50 µL 2% (v/v) phosphoric acid to the reaction mixture. The microplate was washed twice with 200 µL 0.9% (v/v) saturated sodium chloride or water. The measured radioactivity, conditioned by the incorporation of [γ-^33P]-phosphate, is proportional to kinase activity. Furthermore, low control and high control were measured to determine the residual activity (%). As low controls, mixtures with substrate, but without enzyme were used to determine the unspecific binding of [γ-^33P]-phosphate to the well plate. Mixtures with enzyme, but without inhibitor were used as high controls to determine maximum enzyme activity. The IC50-values of the distinct compounds were calculated with Quattro Workflow V1.1.0.8 (Quattro Research GmbH, München, Germany). Dose response curves were generated by measurement of the residual activity of ten different inhibitor concentrations (0.1 mM, 30.0 µM, 10 µM, 3.0 µM, 1.0 µM, 0.3 µM, 0.1 µM, 30.0 nM, 10.0 nM and 3.0 nM). […]

[2] = target: T2, VEGF-R3 (Homo sapiens, UniProt P35916)
T2 construct: host or cells: Sf9 (baculovirus)
T2 sequence (P35916 25-1363): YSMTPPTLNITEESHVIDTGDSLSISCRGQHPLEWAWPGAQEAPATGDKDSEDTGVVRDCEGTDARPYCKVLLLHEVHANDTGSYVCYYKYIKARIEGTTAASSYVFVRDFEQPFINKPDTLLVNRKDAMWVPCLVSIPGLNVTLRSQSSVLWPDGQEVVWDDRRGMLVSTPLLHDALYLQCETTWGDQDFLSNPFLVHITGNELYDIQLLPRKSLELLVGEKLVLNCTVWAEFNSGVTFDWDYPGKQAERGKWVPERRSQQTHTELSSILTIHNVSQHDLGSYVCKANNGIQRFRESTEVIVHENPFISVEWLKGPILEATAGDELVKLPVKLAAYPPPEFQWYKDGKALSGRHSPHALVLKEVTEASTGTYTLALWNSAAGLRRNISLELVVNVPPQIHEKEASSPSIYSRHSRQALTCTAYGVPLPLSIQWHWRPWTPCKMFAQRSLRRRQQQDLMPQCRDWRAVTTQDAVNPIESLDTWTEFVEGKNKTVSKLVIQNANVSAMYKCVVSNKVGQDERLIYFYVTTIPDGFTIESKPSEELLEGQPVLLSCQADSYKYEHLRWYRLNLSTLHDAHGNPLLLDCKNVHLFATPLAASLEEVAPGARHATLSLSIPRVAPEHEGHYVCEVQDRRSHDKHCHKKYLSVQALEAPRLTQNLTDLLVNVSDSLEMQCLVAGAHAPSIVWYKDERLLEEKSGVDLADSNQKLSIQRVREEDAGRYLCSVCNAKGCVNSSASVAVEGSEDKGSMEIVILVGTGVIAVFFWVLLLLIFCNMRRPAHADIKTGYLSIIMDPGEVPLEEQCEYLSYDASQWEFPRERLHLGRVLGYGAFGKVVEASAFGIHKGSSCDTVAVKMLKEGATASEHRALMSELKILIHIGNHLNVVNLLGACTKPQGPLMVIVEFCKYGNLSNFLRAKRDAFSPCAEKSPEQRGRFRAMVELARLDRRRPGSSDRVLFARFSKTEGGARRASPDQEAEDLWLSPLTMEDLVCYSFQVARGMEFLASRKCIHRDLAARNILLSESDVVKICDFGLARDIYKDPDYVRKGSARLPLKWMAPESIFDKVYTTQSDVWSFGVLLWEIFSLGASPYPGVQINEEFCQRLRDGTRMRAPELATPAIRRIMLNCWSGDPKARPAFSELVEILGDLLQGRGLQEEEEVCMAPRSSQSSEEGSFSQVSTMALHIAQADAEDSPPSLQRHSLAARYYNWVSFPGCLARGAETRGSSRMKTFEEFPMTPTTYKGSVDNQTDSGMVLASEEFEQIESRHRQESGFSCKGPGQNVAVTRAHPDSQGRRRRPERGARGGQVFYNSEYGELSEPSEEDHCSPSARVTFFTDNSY
Experimental: as §1, §2

[3] = target: T3, VEGF-R2 (Homo sapiens, UniProt P35968)
T3 construct: host or cells: Sf9 (baculovirus)
T3 sequence (P35968 20-1356): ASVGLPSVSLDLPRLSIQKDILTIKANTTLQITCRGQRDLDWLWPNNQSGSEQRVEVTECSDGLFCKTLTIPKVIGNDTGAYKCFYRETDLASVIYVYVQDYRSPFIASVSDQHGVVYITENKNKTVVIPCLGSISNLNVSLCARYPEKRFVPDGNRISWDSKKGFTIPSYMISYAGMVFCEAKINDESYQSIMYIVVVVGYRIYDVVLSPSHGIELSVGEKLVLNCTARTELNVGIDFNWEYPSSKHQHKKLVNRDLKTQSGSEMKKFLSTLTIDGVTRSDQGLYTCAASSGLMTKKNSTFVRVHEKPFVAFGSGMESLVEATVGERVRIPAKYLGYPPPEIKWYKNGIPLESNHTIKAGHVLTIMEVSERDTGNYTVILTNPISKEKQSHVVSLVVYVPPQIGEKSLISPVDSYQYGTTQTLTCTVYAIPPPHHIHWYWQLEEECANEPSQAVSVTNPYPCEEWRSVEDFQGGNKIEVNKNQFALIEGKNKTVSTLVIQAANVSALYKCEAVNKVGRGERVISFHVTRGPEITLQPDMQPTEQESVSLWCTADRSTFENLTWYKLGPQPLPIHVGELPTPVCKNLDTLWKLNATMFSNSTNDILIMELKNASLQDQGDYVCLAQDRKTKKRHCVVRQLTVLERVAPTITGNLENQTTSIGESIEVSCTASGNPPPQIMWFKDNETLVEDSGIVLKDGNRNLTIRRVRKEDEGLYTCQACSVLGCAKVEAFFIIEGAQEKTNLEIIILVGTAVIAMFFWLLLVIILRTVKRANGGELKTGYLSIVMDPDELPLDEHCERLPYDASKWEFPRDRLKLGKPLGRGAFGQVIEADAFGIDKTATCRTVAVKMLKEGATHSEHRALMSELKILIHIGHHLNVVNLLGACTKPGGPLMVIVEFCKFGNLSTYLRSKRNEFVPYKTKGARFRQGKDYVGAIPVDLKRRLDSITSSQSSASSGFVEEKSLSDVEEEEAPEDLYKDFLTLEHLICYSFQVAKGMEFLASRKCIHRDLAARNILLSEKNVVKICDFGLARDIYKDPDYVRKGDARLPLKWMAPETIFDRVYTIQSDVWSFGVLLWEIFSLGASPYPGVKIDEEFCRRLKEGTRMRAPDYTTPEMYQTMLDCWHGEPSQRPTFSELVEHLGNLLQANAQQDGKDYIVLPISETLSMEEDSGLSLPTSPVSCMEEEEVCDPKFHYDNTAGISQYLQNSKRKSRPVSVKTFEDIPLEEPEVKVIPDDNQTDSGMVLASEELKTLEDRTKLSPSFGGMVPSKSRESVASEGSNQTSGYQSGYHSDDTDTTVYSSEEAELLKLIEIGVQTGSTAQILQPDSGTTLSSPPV
Experimental: as §1, §2

[4] = target: T4, Aurora-A (Homo sapiens, UniProt O14965)
T4 construct: host or cells: Sf9 (baculovirus)
T4 sequence (O14965 1-403): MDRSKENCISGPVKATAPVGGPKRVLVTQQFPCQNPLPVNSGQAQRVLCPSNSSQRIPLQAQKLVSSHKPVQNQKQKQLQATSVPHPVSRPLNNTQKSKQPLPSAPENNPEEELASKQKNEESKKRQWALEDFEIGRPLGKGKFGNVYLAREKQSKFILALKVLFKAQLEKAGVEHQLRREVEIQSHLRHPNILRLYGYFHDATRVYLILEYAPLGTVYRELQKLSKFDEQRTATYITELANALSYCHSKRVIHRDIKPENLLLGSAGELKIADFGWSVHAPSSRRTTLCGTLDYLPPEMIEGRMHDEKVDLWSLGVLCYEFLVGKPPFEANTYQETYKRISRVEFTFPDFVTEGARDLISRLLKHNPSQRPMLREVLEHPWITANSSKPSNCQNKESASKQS
Experimental: as §1, §2

T1 sequence (Q96GD4 whole entry): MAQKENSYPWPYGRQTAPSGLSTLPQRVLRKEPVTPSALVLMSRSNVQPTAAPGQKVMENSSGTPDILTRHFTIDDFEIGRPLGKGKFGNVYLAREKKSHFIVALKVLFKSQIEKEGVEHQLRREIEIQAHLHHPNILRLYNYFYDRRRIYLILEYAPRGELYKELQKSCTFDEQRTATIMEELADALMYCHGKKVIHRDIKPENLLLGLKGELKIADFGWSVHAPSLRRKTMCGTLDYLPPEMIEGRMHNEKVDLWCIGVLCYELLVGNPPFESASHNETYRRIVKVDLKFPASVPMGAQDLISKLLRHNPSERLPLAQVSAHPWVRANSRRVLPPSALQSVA

| Structure (SMILES) | IC50 [1] [nM] | IC50 [2] [nM] | IC50 [3] [nM] | IC50 [4] [nM] |
| --- | --- | --- | --- | --- |
| O=C1CCCc2cc(-c3ccnc(Nc4ccccc4)n3)ccc2N1 [Compound 2a, 7-(2-Anilinopyrimidin-4-yl)-1,3,4,5-tetrahydro-2H-1-benzazepin-2-one] | 26000 | 5900 | 2800 | 2400 |
| O=C1CCCc2cc(-c3ccnc(Nc4ccc(O)cc4)n3)ccc2N1 [Compound 2e, 7-[2-(4-Hydroxyanilino)pyrimidin-4-yl]-1,3,4,5-tetrahydro-2H-1-benzazepin-2-one] | 3500 | 1500 | 1100 | 990 |
| COc1ccc(Nc2nccc(-c3ccc4c(c3)CCCC(=O)N4)n2)cc1O [Compound 2n, 7-[2-(3-Hydroxy-4-methoxyanilino)pyrimidin-4-yl]-1,3,4,5-tetrahydro-2H-1-benzazepin-2-one] | 4500 | 550 | 630 | 1400 |
